Assays:
[1] = target: T1, Furin (Homo sapiens, UniProt P09958); assay: Cleavability of PCSK9 mutants by Furin in HEK293 cells (pulse-labelling, V5 immunoprecipitation); format: cell-based; settings: for processing by co-expressed Furin: co-transfection with Furin, FIG. 8; for processing at Arg218 by endogenous Furin: 5 h pulse-labelling, FIG. 9
T1 construct: endogenous in cells; host or cells: HEK293
Method: Twenty four hours following the co-transfection of the PCSK9 natural mutants and each PC or with an empty vector control (pIRES). The cells were labeled with [^35S] [Met+Cys] for 5 h (P5h) and the cell lysates (Cells) and media analyzed as in FIG. 7. The stars point to lanes where either processing occurred (Furin and PC5A) or was inhibited by the presence of the mutation (R^218S with furin). Cleavage sites GTRFHS^218↓QA (SEQ ID NO: 17); GTRLHR^218↓QA (SEQ ID NO: 18);
[Met+Cys] as described in FIG. 7. The star emphasizes the effectiveness of the RRRR218EL (SEQ ID NO: […]) mutant to allow the complete processing of PCSK9 into the PCSK9-ΔN218 form by endogenous Furin. PCSK9 amino acid sequence in the vicinity of position 218 RFHR218QA (SEQ ID NO: 4) (WT); RFHR218EA (SEQ ID NO: 6) (Q219E); RFHR218EL (SEQ ID NO: 7) (QA219,220EL); RRRR218EL (SEQ ID NO: 5);
Was next tested the hypothesis that cleavage at Arg218 is performed by one or more basic amino acid PCs. Accordingly, wild type PCSK9 was co-expressed with all the convertases as well as with β-secretase BACE1 in HEK293 cells. Cells transiently transfected with vectors expressing hPCSK9-V5 and/or the different convertases (as indicated at the top of lanes) were pulse-labeled with ^35S-(Met+Cys) for 4 h and cell extracts (Cells) and media (Media) were immunoprecipitated with a V5 antibody and the precipitates were resolved by SDS/PAGE. […] The N-terminally truncated N2 product is thus referred to as PCSK9-ΔN218 (SEQ ID NO: 32) (PCSK9 lacking the first 218 amino acids; FIG. 5). […] The R218S mutation abrogates the Furin/PC5A cleavage at the sequence RFHR218.
Based on the crystal structure of Furin (Henrich et al., 2003) and the analysis of its many substrates (Seidah and Chretien, 1999), the best substrates of Furin would have the motif RX(R/K)R↓(E/D)L (SEQ ID NO: 115). This led the applicants to produce mutants of PCSK9 that should greatly enhance the ability of Furin to process this molecule. […] Notice the almost absence of prosegment co-immunoprecipitating with the PCSK9-ΔN218 form produced (FIG. 9), which would be predicted since such cleavage would remove the PCSK9 segment 153-218 (SEQ ID NO: 31), which contains the active site Asp^186.

[2] = test system: LDLR; assay: Western blot of endogenous LDLR level in HuH7 cells transiently transfected with PCSK9 constructs; format: cell-based, human; settings: compared to pIRES empty vector, FIG. 10
Text: Cells expressed either full length PCSK9 (FL-PCSK9), namely wild type sequence (WT), mutated R218S, RRRREL (SEQ ID NO: 5) or active site H226A; a truncated PCSK9 construct with the Cys/His rich domain (signal peptide fused to amino acid 455-692 of PCSK9 and ending with a V5 tag) (CHRD) or the empty vector control (pIRES-2). The levels of β-actin was used as control, as well as the level of PCSK9 intracellular proteins produced (detected by a V5-mAb);
Accordingly, the activity on the degradation of LDLR of wild type PCSK9, its R218S mutant, the RRRR218EL (SEQ ID NO: 5) variant, the active site mutant H226A and the Cys/His-rich domain of PCSK9 (aa 454-692 CHRD) was analyzed by Western blots in HuH7 cells (Benjannet et al., 2004) (FIG. 10).

[3] = test system: VLDLR; assay: Transgenic mice overexpressing PCSK9-V5 in hepatocytes: VLDLR in skeletal muscle, circulating LDL-cholesterol; format: in vivo, mouse
Method: The transgenic protein was tagged with a V5 at its C-terminus to differentiate it from the endogenous one. […] This is the first evidence that circulating PCSK9 can enhance the degradation of VLDLR in vivo and at distant sites away from those of its synthesis.
Immunohistochemistry of VLDLR (red) in skeletal mouse muscles of control Pcsk9+/+, Pcsk9−/− (Pcsk9 knockout) and transgenic mice (Tg-hPcsk9-V5). The nuclei were stained using TO-PRO-3 (blue; invitrogen). scale: […]; and
A transgenic mice specifically overexpressing PCSK9 in hepatocytes was generated. The transgene was under the control of the ApoE promoter and enhancer regulation. […] The transgenic protein was tagged with a V5 at its c-terminus to differentiate it from the endogenous one. […] Immunofluorescence and Confocal Microscopy analyses of the skeletal mouse muscles were performed using a rabbit polyclonal Ab:VLDLR (a74; 1:200). Immunofluorescence analyses were performed with a Zeiss™ LSM-510 confocal microscope. Confocal immunofluorescence microscopy was performed with a Nikon Eclipse™ TE2000-U laser-scanning microscope with 408, 488, and 543-nm laser lines. Images were processed with Adobe Photoshop™ CS2, version 9.0 (Adobe Systems). […] This is the first evidence that circulating PCSK9 can enhance the degradation of VLDLR in vivo. The decrease level of VLDLR in the transgenic mice overexpressing PCSK9 in the liver was also confirm by immunodetection of PCSK9 in extracts of skeletal muscle (see FIG. 21).

[4] = test system: LDLR; assay: Western blot of LDLR level in HEK293 cells co-transfected with LDLR and PCSK9 or PCSK9-TM-CT chimera; format: cell-based, human; settings: HEK293 cells co-transfected with LDLR; compared to wild type PCSK9; FIG. 4
Method: (§1) Note that NH4Cl allows the rescue from degradation of an intermediate immunoreactive ˜105 kDa form of LDLR that is likely found in endosomes. The pIRES lanes represent the empty vector pIRES-2 either alone or co-transfected with LDLR (as indicated at the bottom of the panel) as controls;
as §1, with “HEK293 cells were transiently transfected with different PCSK9-chimera constructions (Benjannet et al., 2004). […] Cells were either treated (+) or not (−) with 5 mM NH4Cl for 24 h. Note” for “Note”, “controls.” for “controls;”

[5] = test system: ApoER2; assay: Western blot of overexpressed ApoER2 in cells co-transfected with PCSK9 constructs; format: cell-based; settings: for degradation of ApoER2: overexpressed receptor, transient co-transfection, FIGS. 13 and 14
Text: (§2) The triangle indicates the position in the gel of respectively ApoER2 (first panel), VLDLR (second panel) and LDLR (third panel). […] The PCSK9 Y38F is a mutant where the Tyr-sulfation of the prosegment is eliminated. The intracellular levels of PCSK9 (detected by a specific in-house polyclonal antibody made in rabbits against human PCSK9) are shown in the corresponding cell lysates in the lower panels;
The intracellular levels of PCSK9 (detected by a specific in house antibody against human PCSK9) are shown in the bottom panels;

[6] = test system: VLDLR; assay: Western blot of overexpressed VLDLR in CHOK1 cells co-transfected with PCSK9 constructs; format: cell-based; settings: overexpressed receptor, transient co-transfection; FIG. 13
Text: as §2

[7] = test system: LDLR; assay: Western blot of overexpressed LDLR in CHOK1 cells co-transfected with PCSK9 constructs; format: cell-based; settings: overexpressed receptor, transient co-transfection; FIG. 13
Text: as §2

[8] = test system: basic aa-specific PCs; assay: Inhibition of PC processing of overexpressed human PCSK9 in HEK293 cells (pulse-labelling, V5 immunoprecipitation); format: cell-based; settings: co-expression with PCSK9 in HEK293 cells; FIG. 7
Method: Twenty four hours following the co-transfection of PCSK9 with a PC or with an empty vector control (the pIRES-2 vector from Invitrogen), the cells were labeled with [^35S] [Met+Cys] for 4 h (P4h). The cell lysates (Cells) and media were immunoprecipitated with a V5-mAb and the immunoprecipitates resolved by SDS-PAGE, as described (Seidah et al., 2003). sFurin represents the soluble form of furin lacking the transmembrane-cytosolic tail (Decroly et al., 1996). The stars point to lanes where either processing occurred (with Furin and PC5A) or was inhibited (α1-PDX). From now on, N2 is defined herein as the N-terminal 218 amino acid truncated PCSK9 product (PCSK9-ΔN218). The pIRES lanes represent the empty vector pIRES-2 either alone or co-transfected with PCSK9 (as indicated at the bottom of the panel) as controls;
Was next tested the hypothesis that cleavage at Arg218 is performed by one or more basic amino acid PCs. Accordingly, wild type PCSK9 was co-expressed with all the convertases as well as with β-secretase BACE1 in HEK293 cells. Cells transiently transfected with vectors expressing hPCSK9-V5 and/or the different convertases (as indicated at the top of lanes) were pulse-labeled with ^35S-(Met+Cys) for 4 h and cell extracts (Cells) and media (Media) were immunoprecipitated with a V5 antibody and the precipitates were resolved by SDS/PAGE. […]

T1 sequence (P09958 108-794): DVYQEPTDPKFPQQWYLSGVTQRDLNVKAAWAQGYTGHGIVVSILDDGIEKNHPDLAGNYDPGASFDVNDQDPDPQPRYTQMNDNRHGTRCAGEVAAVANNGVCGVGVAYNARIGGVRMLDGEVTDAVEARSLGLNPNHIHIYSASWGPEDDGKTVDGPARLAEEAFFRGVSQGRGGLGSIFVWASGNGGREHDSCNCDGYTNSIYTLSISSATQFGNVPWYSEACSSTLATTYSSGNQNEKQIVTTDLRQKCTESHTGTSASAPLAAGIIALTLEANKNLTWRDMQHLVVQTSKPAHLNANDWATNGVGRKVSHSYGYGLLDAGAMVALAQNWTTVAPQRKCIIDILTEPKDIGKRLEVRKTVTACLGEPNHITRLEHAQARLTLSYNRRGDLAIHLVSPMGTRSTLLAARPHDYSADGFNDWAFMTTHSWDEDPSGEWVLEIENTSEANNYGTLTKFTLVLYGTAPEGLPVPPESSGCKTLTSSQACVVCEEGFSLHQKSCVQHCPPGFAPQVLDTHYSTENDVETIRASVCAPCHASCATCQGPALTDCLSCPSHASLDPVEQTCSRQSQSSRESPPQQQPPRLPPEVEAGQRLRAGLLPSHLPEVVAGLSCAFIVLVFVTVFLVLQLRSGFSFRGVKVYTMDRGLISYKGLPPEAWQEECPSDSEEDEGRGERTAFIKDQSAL

F216L: natural PCSK9 mutant Phe216-to-Leu, hypercholesterolemia-associated
processing by co-expressed Furin [1]: cleaves to a lesser extent

H226A: active site mutant of PCSK9, an inactive enzyme form that remains as zymogen in the ER [reference compound]
activity in enhancing the degradation of the LDLR [2]: inactive

PCSK9-V5: transgenic PCSK9 tagged with V5 at its C-terminus, overexpressed in mouse hepatocytes
circulating LDL-Cholesterol ([3]; transgenic mice overexpressing PCSK9 in hepatocytes): quite elevated
level of VLDLR in skeletal muscle ([3]; transgenic mice versus control littermates, immunofluorescence, FIG. 21): dramatically decreased
decrease of VLDLR level in muscle ([3]; transgenic mice versus non-transgenic control littermates): at least 3 fold

PCSK9-[TM-CT of ACE2]: chimera of full-length human PCSK9 (1-692) fused to the transmembrane and cytosolic domains of ACE2, SEQ ID NO: 27
degradation of LDLR [4]: much more effective than the wild type (WT) PCSK9

PCSK9-[TM-CT of LDLR]: chimera of full-length human PCSK9 (1-692) indirectly fused to the transmembrane and cytosolic domains of LDLR, SEQ ID NO: 20
degradation of LDLR [4]: much more effective than the wild type (WT) PCSK9

PCSK9-[TM-CT of Lamp1]: chimera of full-length human PCSK9 (1-692) fused to the transmembrane and cytosolic domains of Lamp1, SEQ ID NO: 24
degradation of LDLR [4]: more powerful chimera to enhance the degradation of the LDLR
level of ApoER2 ([5]; CHOK1, Neuro2A, HuH7 and HEKL293 cells, FIG. 14): significantly decreased the level of ApoER2 in all cells tested
degradation of ApoER2 [5]: highest efficacy of degradation
degradation of VLDLR [6]: highest efficacy of degradation
degradation of LDLR [7]: highest efficacy of degradation

PCSK9-ΔN218: C-terminal fragment of the furin/PC5-cleaved PCSK9 (219-692), SEQ ID NO: 32
activity in enhancing the degradation of the LDLR [2]: inactive form of PCSK9

R218S: natural PCSK9 mutant Arg218-to-Ser, hypercholesterolemia-associated, Furin/PC5A-resistant
activity in enhancing the degradation of the LDLR [2]: active in enhancing the degradation of the LDLR
processing by co-expressed Furin [1]: can no longer process

RFHR218↓EA: PCSK9 mutant with motif RFHR218EA (SEQ ID NO: 6)
processing at Arg218 by endogenous Furin [1]: intermediate Furin-cleavability

RFHR218↓EL: PCSK9 mutant with motif RFHR218EL (SEQ ID NO: 7)
processing at Arg218 by endogenous Furin [1]: intermediate Furin-cleavability

RRRR^218EL: PCSK9 variant with wild type RFHR218QA replaced by optimal Furin-recognition sequence RRRR218EL (SEQ ID NO: 5)
activity in enhancing the degradation of the LDLR [2]: inactive
processing at Arg218 by endogenous Furin [1]: completely process

wild type PCSK9: human full-length PCSK9 (1-692), SEQ ID NO: 21
degradation of ApoER2 [5]: degraded
activity in enhancing the degradation of the LDLR [2]: active in enhancing the degradation of the LDLR
degradation of VLDLR [6]: degraded

α1-PDX: modified serpin which inhibits most of the basic aa-specific PCs
inhibition of processing of PCSK9 into PCSK9-ΔN218 [8]: completely inhibits such processing into PCSK9-ΔN218

B1: CHRD: truncated PCSK9 construct: signal peptide fused to the Cys/His rich domain (amino acid 455-692) with V5 tag (protein)
chain: LFCRTVWSAHSGPTRMATAVARCAPDEELLSCSSFSRSGKRRGERMEAQGGKLVCRAHNAFGGEGVYAIARCCLLPQANCSVHTAPPAEASMGTRVHCHQQGHVLTGCSSHWEVEDLGTHKPPVLRPRGQPNQCVGHREASIHASCCHAPGLECKVKEHGIPAPQEQVTVACEEGWTLTGCSALPGTSHVLGAYAVDNTCVVRSRDVSTTGSTSEGAVTAVAICCRSRHLAQASQELQ
modifications: left off: small tags and cut ends
notes: truncated PCSK9 construct: signal peptide fused to the Cys/His rich domain (amino acid 455-692) with V5 tag
activity in enhancing the degradation of the LDLR [2]: inactive

From patent publication US8338568B2, “Chimeric PCSK9 proteins, cells comprising same, and assays using same” (Adaerata, Limited Partnership, priority 2006, dated 2012)
